# Reference: patent US10548829B2, “Oral care compositions and methods of use” (priority 2016, dated 2020)
# Legend:
# S. sobrinus/A. viscosus = assay: Growth inhibition (OD610), co-culture; assay type: cell-based, S. sobrinus and A. viscosus
# Procedure: (§1) Further characterization was performed on planktonic oral microbes; Streptococcus sobrinus (Cariongenic—strain-SL1[CCM 6070, CNCTC 9/89] (ATCC cat. #33478), Streptococcus gordonii (Arginolytic—strain V288 (ATCC cat. #35105), Actinomyces viscosus) as well late colonizer (Gram −), pathogenic Aggregatibacter actinomycetemcomitans. All microbes were grown in their respective culture media: Streptococcus sobrinus and Streptococcus gordonii in BHI broth (BD, cat #237500), Aggregatibacter actinomycetemcomitans in BHI broth supplemented with 0.5% Yeast Extract (BD, cat #210941) and Actinomyces viscosus in Trypticase Soy Broth (BD, cat #211768) supplemented with 0.5% Yeast Extract (BD, cat #210941). Bacteria were cultured overnight in 37° C., 5% CO2 in approximately 20 ml of the appropriate culture broth. The following day, the OD610 was determined and solutions were diluted to 0.2 for the assay.
# (§2) Test samples (Naringin, Naringin:Zinc complex and Naringin+Zinc Acetate (combination)) were prepared as a 100 mM stock solution followed by 2 fold serial dilution in 100% DMSO. Triclosan (positive control) was prepared as a 10% stock in 100% EtOH and 3 fold serial dilutions were done in 100% EtOH. […]
# (§3) After approximately 12-13 hours of treatment, the plate was read at 610 nm using an Envision plate reader (PerkinElmer, Waltham, Mass.). The % inhibition relative to control was determined as follows: […]
# [1] = system: Aggregatibacter actinomycetemcomitans; assay: Growth inhibition (OD610), single culture; assay type: cell-based; details: A. actinomycetemcomitans
# Procedure: (§4) Single species of Streptococcus gordonii (S. gordonii, S.g) strain V288 (ATCC #35105), Streptococcus sobrinus (S. sobrinus, S.$) strain SL1[CCM 6070, CNCTC 9/89] (ATCC #33478), or Aggregatibacter actinomycetemcomitans were analyzed. Also, a mixed culture containing Actinomyces viscosus (A. viscosus, A.v) strain (ATCC, #43146), Lactobacillus casei (L. casei, L.c) strain (ATCC #334), Streptococcus oralis (S. oralis, S. o) strain (ATCC #35037), Fusobacterium nucleatum (F. nucleatum, F. n) strain (ATCC #10953), and Veilonella parvula (V. parvula, V. p) strain (ATCC #17745) was also analyzed for growth inhibition/toxicity activity. Bacteria were cultured overnight in approximately 20 ml of BHI broth (BD, cat #237500) or maintained in a specialized complex modified BHI II medium in a continuous culture chemostat at 37° C. respectively. The following day, the OD610 were determined and solutions diluted to an OD610 of 0.2 or 0.1 respectively for the assay.
# (§5) Triclosan (positive control) was prepared as a 10% stock in 100% EtOH and 3 fold serial dilutions were performed in 100% EtOH. An appropriate amount of the diluted samples was then transferred into a 96 well clear plate such that the resulting final concentration of the test samples ranged from either a 2 mM or 4 mM (highest concentration) to 0.0078 mM or 0.0156 mM (lowest concentration respectively) in 2% DMSO in 100 μl media per well. Triclosan (TCN) ranged from 0.01% to 1.67e-6% in 1% EtOH. For Zinc acetate, in order to mimic the 2:1 molar ratio (ligand:Zinc) in the Naringin:Zinc complex, the final concentration ranged from 0.7 mM to 0.0027 mM for samples with 2 mM as the highest concentration and 1.33 mM to […] for samples with 4 mM as the highest concentration in 2% DMSO. Next, 100 μl of bacterial culture at OD610 0.2 were introduced to the wells with the test samples. The wells were thoroughly mixed and incubated at 37° C. overnight. The plates were read using an Envision plate reader (PerkinElmer, Waltham, Mass.) at 610 nm.
# (§6) The IC50 for the complex, Product 5, was determined for Streptococcus gordonii (S. gordonii), Streptococcus sobrinus (S. sobrinus), Aggregatibacter actinomycetemcomitans (A. actinomycetemcomitans), and also for the mixed bacterial culture. […] Triclosan (TCN) was included as a positive control for bacterial inhibition.
# as §1
# (§7) Triclosan (positive control) was prepared as a 10% stock in 100% EtOH and 3 fold serial dilutions were done in 100% EtOH. […] For Naringin+Zinc combination, while the highest total overall concentration was 2 mM, the exact concentration was Naringin (1.3 mM) and Zinc Acetate (0.7 mM) due to the compositions 2:1 molar ratio. For Zinc Acetate, in order to mimic the 2:1 ratio (ligand:Zinc) composition as in the complex, the final concentration ranged from 0.7 mM to 0.0027 mM in 2% DMSO.
# (§8) A 100 μl aliquot of bacterial culture at OD610 0.2 were introduced to the wells with the test samples. The wells were thoroughly mixed and plates incubated overnight in a 37° C. incubator with or without 5% CO2 depending upon the bacterial species.
# Streptococcus sobrinus = assay: Growth inhibition (OD610), single culture; assay type: cell-based
# Procedure: as §4, §5, §6, §1, §7, §8
# S. gordonii/A. viscosus = assay: Growth inhibition (OD610), co-culture; assay type: cell-based, S. gordonii and A. viscosus
# Procedure: as §1, §2, §3
# [2] = system: A. actinomycetemcomitans/A. viscosus; assay: Growth inhibition (OD610), co-culture; assay type: cell-based, A. actinomycetemcomitans and A. viscosus
# Procedure: as §1, §2, §3
# [3] = system: A. actinomycetemcomitans/S. sobrinus; assay: Growth inhibition (OD610), co-culture; assay type: cell-based, A. actinomycetemcomitans and S. sobrinus
# S. gordonii/S. sobrinus = assay: Growth inhibition (OD610), co-culture; assay type: cell-based, S. gordonii and S. sobrinus
# Procedure: as §1, §2, §3
# [4] = system: planktonic oral bacterial species (S. sobrinus, S. gordonii, A. actinomycetemcomitans, A. viscosus, mixed cultures); assay: Growth inhibition, summary statements over the single, co- and mixed cultures tested; assay type: cell-based, oral bacteria; details: for inhibition of single species, co-cultures and mixed cultures (in words): concentrations of Tables 7-12
# Procedure: as §4, §5, §6, §1, §7, §8
# [5] = 0.5 mM (combination 0.5 mM total)
SMILES,inhibition at 500 µM (S. sobrinus/A. viscosus; [5]) [%],"inhibition at 500 µM ([1]; Aggregatibacter actinomycetemcomitans, 0.5 mM (combination 0.325 mM + 0.175 mM, 0.5 mM total)) [%]","inhibition at 500 µM (Streptococcus sobrinus; Streptococcus sobrinus, S. sobrinus, 0.5 mM (combination 0.325 mM + 0.175 mM, 0.5 mM total)) [%]",inhibition at 500 µM (S. gordonii/A. viscosus; [5]) [%],"inhibition at 500 µM [2, 5] [%]","inhibition at 500 µM [3, 5] [%]",inhibition at 500 µM (S. gordonii/S. sobrinus; [5]) [%],"antimicrobial effect on bacterial species tested (in words) ([4]; all concentrations tested, cultured alone or as co-cultures)","inhibition of single species, co-cultures and mixed cultures (in words) [4]",% Inhibition (S. sobrinus/A. viscosus; 0.175 mM) [%],% Inhibition ([1]; 0.175 mM) [%],"% Inhibition (Streptococcus sobrinus; S. sobrinus, 0.175 mM) [%]","IC50 (Streptococcus sobrinus; Streptococcus sobrinus, overnight at 37° C., read-out: IC50) [µM]",% Inhibition (S. gordonii/A. viscosus; 0.175 mM) [%],% Inhibition ([2]; 0.175 mM) [%],% Inhibition ([3]; 0.175 mM) [%],% Inhibition (S. gordonii/S. sobrinus; 0.175 mM) [%],"IC50 range over cultures tested, corresponding ppm ([4]; S. sobrinus, S. gordonii, A. actinomycetemcomitans and mixed chemostat cultures)","IC50 ([4]; S. sobrinus, S. gordonii, A. actinomycetemcomitans and mixed chemostat cultures, read-out: concentration that inhibited 50% of the bacterial growth (IC50), range over cultures tested) [µM]"
C[C@@H]1O[C@@H](O[C@H]2[C@H](Oc3cc(O)c4c(c3)O[C@H](c3ccc(O)cc3)CC4=O)O[C@H](CO)[C@@H](O)[C@@H]2O)[C@H](O)[C@H](O)[C@H]1O [Naringin],-3.79 ± 7.15,5.01 ± 1.69,-2.64 ± 2.54,-2.39 ± 5.68,-0.03 ± 2.02,0.33 ± 3.48,-6.84 ± 1.19,did not show detectable antimicrobial effect,little to no detectable inhibition,–,–,–,–,–,–,–,–,–,–
"CC(=O)[O-].CC(=O)[O-].[Zn+2] [Zinc Acetate alone, Zinc (II) Acetate]",–,–,–,–,–,–,–,–,little to no detectable inhibition,2.46 ± 6.58,29.24 ± 0.42,−1.05 ± 3.10,290 ± 40,−0.74 ± 6.34,4.13 ± 6.89,6.58 ± 5.36,1.55 ± 0.24,45.9-317.5 ppm,250 to 1730
